Assay results published in patent US6350755B1, “Inhibitors of prenyl-protein transferase” (Merck & Co., Inc., priority 2000, dated 2002).

Target: T1, human FPTase (Homo sapiens, UniProt P49354+P49356)
T1 construct: made in house
Assay: In vitro inhibition of Ras farnesyl transferase
Format: biochemical
Details: recombinant FPTase; 650 nM Ras-CVLS, 100 nM farnesyl diphosphate; 30° C.; read-out: IC50 for inhibitory activity against human FPTase
Description: Transferase Assays. Isoprenyl-protein transferase activity assays are carried out at 30° C. unless noted otherwise. A typical reaction contains (in a final volume of 50 μL): [^3H]farnesyl diphosphate, Ras protein, 50 mM HEPES, pH 7.5, 5 mM MgCl2, 5 mM dithiothreitol, 10 μM ZnCl2, 0.1% polyethyleneglycol (PEG) (15,000-20,000 mw) and isoprenyl-protein transferase. The FPTase employed in the assay is prepared by recombinant expression as described in Omer, C. A., Kral, A. M., Diehl, R. E., Prendergast, G. C., Powers, S., Allen, C. M., Gibbs, J. B. and Kohl, N. E. (1993) Biochemistry 32:5167-5176. After thermally pre-equilibrating the assay mixture in the absence of enzyme, reactions are initiated by the addition of isoprenyl-protein transferase and stopped at timed intervals (typically 15 min) by the addition of 1 M HCl in ethanol (1 mL). The quenched reactions are allowed to stand for 15 m (to complete the precipitation process). After adding 2 mL of 100% ethanol, the reactions are vacuum-filtered through Whatman GF/C filters. Filters are washed four times with 2 mL aliquots of 100% ethanol, mixed with scintillation fluid (10 mL) and then counted in a Beckman LS3801 scintillation counter.
For inhibition studies, assays are run as described above, except inhibitors are prepared as concentrated solutions in 100% dimethyl sulfoxide and then diluted 20-fold into the enzyme assay mixture. […]

Cn1cnc2c1C1c3ccc(C#N)c(c3)Oc3cccc(c3)S(=O)(=O)NCCC(=O)N1CC2 (racemic) [Example 1]
IC50: ≤ 5 µM
